Source: patent publication US6017914A, “Benzo[b]thiophene compounds, intermediates, formulations, and methods” (Eli Lilly and Company, priority 1997, dated 2000)

How the values were obtained:
uterus = test: Post-menopausal ovariectomized rat model: wet uterine weight; type: in vivo, female Sprague Dawley rats; details: daily for 4 days
Serum Cholesterol = test: Serum cholesterol in ovariectomized rats (Cholesterol Analysis); type: in vivo, female Sprague Dawley rats; details: daily for 4 days

Compound | Uterine Wt. (% Inc.) versus the ovariectomized controls (uterus; 0.1 mg/kg PO) [%] | Uterine Wt. (% Inc.) versus the ovariectomized controls (uterus; 1 mg/kg PO) [%] | Uterine Wt. (% Inc.) versus the ovariectomized controls (uterus; 10 mg/kg PO) [%] | Serum Cholesterol (% Dec.) versus ovariectomized controls (Serum Cholesterol; 0.1 mg/kg PO) [%] | Serum Cholesterol (% Dec.) versus ovariectomized controls (Serum Cholesterol; 1 mg/kg PO) [%] | Serum Cholesterol (% Dec.) versus ovariectomized controls (Serum Cholesterol; 10 mg/kg PO) [%]
COC(=O)c1ccc2c(C(=O)c3ccc(OCCN4CCCCC4)cc3)c(-c3ccc(O)cc3)sc2c1.Cl [Example 1, [2-(4-Hydroxyphenyl)-6-methoxycarbonylbenzo[b]thien-3-yl][4-[2-(1-piperidinyl)ethoxy]phenyl]methanone Hydrochloride] | 46.9 | 19.1 | 45.2 | -8.6 | – | –
CCCCOC(=O)c1ccc2c(C(=O)c3ccc(OCCN4CCCCC4)cc3)c(-c3ccc(O)cc3)sc2c1 [Example 2, [2-(4-Hydroxyphenyl)-6-n-butoxycarbonylbenzo[b]thien-3-yl][4-[2-(1-piperidinyl)ethoxy]phenyl]methanone] | 19.4 | 16.8 | 52.5 | -1.2 | – | –
CC(C)COC(=O)c1ccc2c(C(=O)c3ccc(OCCN4CCCCC4)cc3)c(-c3ccc(O)cc3)sc2c1 [Example 3] | 11.8 | 21.7 | 47.1 | -2.4 | 8.7 | 58.0
Cl.O=C(O)c1ccc2c(C(=O)c3ccc(OCCN4CCCCC4)cc3)c(-c3ccc(O)cc3)sc2c1 [Example 4, [2-(4-Hydroxyphenyl)-6-carboxybenzo[b]thien-3-yl][4-[2-(1-piperidinyl)ethoxy]phenyl]methanone Hydrochloride] | 18.8 | 27.2 | 29.6 | 0.6 | – | –
CC(=O)c1ccc2c(C(=O)c3ccc(OCCN4CCCCC4)cc3)c(-c3ccc(O)cc3)sc2c1 [Example 5, [2-(4-Hydroxyphenyl)-6-acetylbenzo[b]thien-3-yl][4-[2-(1-piperidinyl)ethoxy]phenyl]methanone] | 18.8 | 51.8 | 69.4 | -6.3 | – | –
C#Cc1ccc2c(C(=O)c3ccc(OCCN4CCCCC4)cc3)c(-c3ccc(O)cc3)sc2c1 [Example 6, [2-(4-Hydroxyphenyl)-6-ethynylbenzo[b]thien-3-yl][4-[2-(1-piperidinyl)ethoxy]phenyl]methanone] | 14.3 | 27.8 | 22.5 | – | – | –
